Results: a melting point compilation (Tetko et al.; mined from patent text by program, amines drawn as free bases though some values may be those of a salt)

First: CCOC(=O)/C=C/c1ccc(C#Cc2ccc3c(c2)C(C)(C)CCC3(C)C)cc1
Second: CCOC(=O)Cc1nc(-c2ccc(Cl)cc2)oc1Oc1cc(C)ccc1C
The melting point of the first is lower: 116 to 118 °C for the first, 122 to 124 °C for the second.

First: C=CCC(C(=O)NCC#CCN(C)C)(c1ccccc1)c1ccccc1
Second: Cc1cccc(NC(=O)NCC(=O)N(CC(=O)N(C)c2ccccc2)c2ccccc2Cl)c1
The melting point of the first is lower: 107 to 109 °C for the first, 180 °C for the second.

Compared with `COc1ccc2cnc(Nc3ccccc3)nc2c1C1CCCC1`, `COc1ccc(NCC(=O)N2CCC(Cc3ccc(F)cc3)CC2)cc1` is lower in melting point: 187 to 188 °C for the first, 141 to 143 °C for the second.

First: CCN(C)C(C)CN1CCc2c(c(=O)oc3cc(OC)ccc23)C1 (stereo unspecified)
Second: CCCc1cc(Cl)c2sc(Cc3ccc(OC)cc3)c(C)c2c1O
The melting point of the first is lower: 102 to 104 °C for the first, 114 to 116 °C for the second.

First: COc1cc2c(cc1OC)CC(C#N)=C2
Second: COc1ccc(C=C(C#N)C#N)cc1OC
The melting point of the first is higher: 140 to 141 °C for the first, 108 °C for the second.

First: CC(C)(C)OC(=O)N1CCN(c2ccc(NC=O)nc2)CC1
Second: COc1cc2nc(N3CCN(C(=O)C4CC=CC4)CC3)nc(N)c2cc1OC
The melting point of the first is lower: 178 to 180 °C for the first, 216 to 218 °C for the second.

First: O=C(Nc1cnc2ccccc2c1)c1cc2cc(F)ccc2n1Cc1cccc(F)c1
Second: COCCNC(=O)c1cccc(-c2cccc3c(C)c(Cc4cc(F)cc(Cl)c4)sc23)c1
The melting point of the first is higher: 244 to 246 °C for the first, 132 to 133 °C for the second.

Compared with `CC(C)(C(=O)O)n1c(=O)[nH]c2cc3ccccc3cc2c1=O`, `Cc1[nH]c(-c2ccccc2)c2nc[nH]c(=O)c12` is higher in melting point: 273 to 276 °C for the first, 295 to 296 °C for the second.

First: CC(=O)NCC1CN(c2ccc(N3CCN(c4nc5ccc(F)c(F)c5o4)CC3)c(F)c2)C(=O)O1 (stereo unspecified)
Second: NC(=O)c1sc2nccc(N3CCN(c4ccccn4)CC3)c2c1N
The melting point of the first is lower: 213 to 214 °C for the first, 266 to 270 °C for the second.

First: CCN(CC)CC1CCCCN1CCNC(=O)N1c2cc(Cl)ccc2C(=O)Nc2cccnc21 (stereo unspecified)
Second: NCCN1CCN(CC(=O)N2c3ccccc3C(=O)Nc3cccnc32)CC1
The melting point of the first is lower: 169 to 170 °C for the first, 188 to 190 °C for the second.

First: O=C(O)C(Cc1ccc(OCCN2c3ccccc3Oc3ccccc32)cc1)Oc1ccccc1 (stereo unspecified)
Second: O=C(c1ccccc1)c1cc(Cl)ccc1CCCN1C(=O)c2ccccc2C1=O
The melting point of the first is higher: 119 to 120 °C for the first, 94 to 97 °C for the second.

First: N#CC1(c2ccccc2)CCN(Cc2ccccc2)CC1
Second: COc1cn2nc(OCCCN3CCN(C(c4ccccc4)c4ccccc4)CC3)ccc2n1
The melting point of the first is lower: 73 to 74 °C for the first, 144 to 146 °C for the second.

First: O=S(=O)(Nc1ccc(C2=NC3(O)c4ccc(Cl)cc4CC3S2)cc1)c1ccc(Cl)cc1 (stereo unspecified)
Second: CCOC(=O)c1ccc(NC(=O)C(COc2cccnc2)NS(=O)(=O)c2ccc(Cl)cc2)cc1 (racemic)
The melting point of the first is lower: 116 °C for the first, 119 to 124 °C for the second.

First: O=c1cc(-c2ccccc2)oc2cccc(OCCO)c12
Second: BrCc1ccc2nc(-c3ccccc3)c(-c3ccccc3)nc2c1
The melting point of the first is lower: 124 °C for the first, 146 to 148 °C for the second.

First: Fc1cc2cc3n(c2cc1Cl)CCNC3
Second: COc1cc2cn(N3C(C)CCCC3C)nc2cc1OC (stereo unspecified)
The melting point of the first is higher: 195 to 197 °C for the first, 162 to 163 °C for the second.

Compared with `CC(C)N(C(=O)Cn1cncn1)c1ccccc1`, `CCOC(=O)c1ccc(-n2cncn2)cc1` is lower in melting point: 125 °C for the first, 97 to 99 °C for the second.

First: C=CCOc1ccccc1[N+](=O)[O-]
Second: O=[N+]([O-])c1ccccc1NOS(=O)(=O)c1ccccc1
The melting point of the first is lower: 70 to 72 °C for the first, 140 °C for the second.

Compared with `Cc1nc2ccc3c(c2o1)C(=O)CC3`, `Oc1ccc2oc(-c3ccc(F)cc3)nc2c1` is higher in melting point: 106 to 107 °C for the first, 166 to 168 °C for the second.

First: COC(=O)C1C=CCN2C(=O)C(CCSC(C)=O)(Cc3ccccc3)C(=O)N12 (stereo unspecified)
Second: COC(=O)C[C@H]1C(=O)OCN1C(=O)OCc1ccccc1
The melting point of the first is higher: 161 to 162 °C for the first, 90 to 93 °C for the second.

Compared with `N#Cc1ccccc1NC(=O)C(=O)N1CCC(Cc2ccc(F)cc2)CC1`, `Cn1cc(C2=C(c3cccc(N4CCC(O)CC4)c3)C(=O)NC2=O)c2ccccc21` is higher in melting point: 101 to 103 °C for the first, 136 to 141 °C for the second.

Compared with `CCc1nc2c(cnn2CC)c(NC2CCOCC2)c1CNC(=O)c1cc(C)cc(C(=O)OC)c1`, `CC(=O)c1cccc(C(=O)NC(Nc2c(Nc3cccnc3)c(=O)c2=O)C(C)(C)C)c1` (stereo unspecified) is higher in melting point: 89 to 93 °C for the first, 218 to 219 °C for the second.

Compared with `Cc1cnc2cccc(Oc3cc(-c4ccc(C(F)(F)F)cc4)ncn3)c2n1`, `FC(F)(F)c1ccc2c(c1)nc(/C=C/c1ccccc1)n2-c1ccccn1` is higher in melting point: 139 to 141 °C for the first, 144 to 145 °C for the second.

First: CCN1CCCC1CNC(=O)c1cc(S(N)(=O)=O)cc2c1OCCO2 (stereo unspecified)
Second: COc1ccc(S(=O)(=O)C(C)(Cc2cccc(OCCN3CCCCC3)c2)C(N)=O)cc1 (stereo unspecified)
The melting point of the first is higher: 160 to 161 °C for the first, 74 °C for the second.

First: C=Cc1cccc(C(OS(=O)(=O)c2ccc(Cl)cc2)(C(F)(F)F)C(F)(F)F)c1
Second: COC(=O)COc1cccc(-c2ccc(Cl)cc2)n1
The melting point of the first is higher: 70 °C for the first, 60 to 63 °C for the second.

First: OC(CSc1ccc(Cl)cc1)Cn1ccnc1 (stereo unspecified)
Second: Clc1ccc2[nH]c3c4ccccc4nc-3c(Cl)c2c1
The melting point of the first is lower: 108 to 109 °C for the first, 281 to 282 °C for the second.

Compared with `CC(C)c1ccc(NC(=O)OC(C)(C)C)c(NC(=O)CC(=O)c2cccc(C#N)c2)c1`, `CC(C)OC(=O)Cc1nc(-c2ccc(F)cc2)oc1-c1ccsc1` is lower in melting point: 179 to 180 °C for the first, 108 to 110 °C for the second.

Compared with `CN(C)C=Nc1c(Cl)cc(N=Cc2cccc(Br)c2)cc1Cl`, `O=C(NCCCO)c1cccc(-c2ccc3c(n2)N(Cc2ccc(Cl)cc2Cl)CC3)c1` is higher in melting point: 136 to 138 °C for the first, 145 to 146 °C for the second.

First: COc1cc(CCCN2CCc3cc(OC)c(OC)cc3C2)ccc1NC(=O)c1cccc2c(=O)c3c(OC)ccc(OC)c3[nH]c12
Second: COc1cc(Nc2nc3cccc(-c4cccc(CN)c4)c3o2)cc(OC)c1OC
The melting point of the first is lower: 140 °C for the first, 145 to 150 °C for the second.

Compared with `C=CCNC(=O)C(C)N` (stereo unspecified), `N=C(N)NCCCOc1ccc2c(c1)CC(CCC(=O)O)C(=O)N2` (stereo unspecified) is higher in melting point: 77.5 to 78 °C for the first, 168 to 172 °C for the second.

First: Nc1nnc(-c2ccnc3[nH]c(CCc4ccccc4)cc23)o1
Second: S=C(NCc1ccccc1)N1CCc2c([nH]c3ccccc23)C1c1ccc2c(c1)OCO2 (stereo unspecified)
The melting point of the first is higher: 234 to 235 °C for the first, 205 to 207 °C for the second.

Compared with `CC(=O)Nc1ccc(Oc2ccc3c(c2)OCC(=O)N3)cc1`, `O=C(N[C@H]1CC(=O)N(c2cc(Cc3n[nH]c(=O)c4ccccc34)ccc2F)C1=O)OCc1ccccc1` is lower in melting point: 230 to 232 °C for the first, 121 to 127 °C for the second.

Compared with `O=C(NCc1ccc(Cl)cc1)c1cn(CCO)c2sc(CCCO)cc2c1=O`, `CCOC(=O)c1cn(-c2ccc(F)cn2)c2c(F)c(F)c(F)cc2c1=O` is higher in melting point: 174 to 178 °C for the first, 203 to 205 °C for the second.

First: CCCn1c(=O)c2[nH]c(C3CCOC3)nc2n(CCC)c1=O (stereo unspecified)
Second: CC(C)(F)C1COCc2nc3c(N)nc4c(c3n21)CCCC4 (stereo unspecified)
The melting point of the first is lower: 177 to 178 °C for the first, 196 to 197 °C for the second.

First: CCCCCCCCCCCC(=O)Oc1ccc2nc(S(N)(=O)=O)sc2c1
Second: COC(=O)CCCCCCCCCC1=C(C)C(=O)C(OC)=C(OC)C1=O
The melting point of the first is higher: 112 to 114 °C for the first, 37 to 38 °C for the second.

Compared with `COc1cc(CI)ccc1C12CC3CC(CC(C3)C1)C2`, `CC1(C)CC(N(c2nc(F)nc(N(C3CC(C)(C)NC(C)(C)C3)C3CC(C)(C)NC(C)(C)C3)n2)C2CC(C)(C)NC(C)(C)C2)CC(C)(C)N1` is higher in melting point: 143 to 144 °C for the first, 298 to 304 °C for the second.

Compound `Cc1c([N+](=O)[O-])ccc(Cl)c1C#N` has a melting point of 87.5 to 89.5 °C.
